The record followed here is ChEMBL document CHEMBL3817747 (J Med Chem, 2016).

The structures appear in SMILES notation.

The target in the test is Neuraminidase (Influenza A virus, UniProt B4URF0). The format is cell-based, Influenza A virus (A/WSN/1933(H1N1)), HEK293.
Neuraminidase, sequence (B4URF0 whole entry): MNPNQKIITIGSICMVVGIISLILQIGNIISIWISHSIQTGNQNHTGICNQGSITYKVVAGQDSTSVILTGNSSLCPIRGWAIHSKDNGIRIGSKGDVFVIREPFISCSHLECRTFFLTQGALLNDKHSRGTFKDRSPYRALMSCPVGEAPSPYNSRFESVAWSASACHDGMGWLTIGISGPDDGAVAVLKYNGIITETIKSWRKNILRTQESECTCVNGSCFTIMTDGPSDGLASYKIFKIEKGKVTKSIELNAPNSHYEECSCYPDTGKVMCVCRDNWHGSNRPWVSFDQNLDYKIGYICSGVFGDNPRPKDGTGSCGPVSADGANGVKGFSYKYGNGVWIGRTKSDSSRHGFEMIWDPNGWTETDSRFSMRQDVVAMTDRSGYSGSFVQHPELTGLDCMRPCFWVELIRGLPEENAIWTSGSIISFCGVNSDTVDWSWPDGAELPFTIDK
Consider `CCC(CC)[C@H](NC(C)=O)[C@@H]1C[C@@H](P(=O)(O)O)C[C@H]1NC(=N)N`, for which the IC50 (in general, the concentration that inhibits the measured activity by half) turned out to be 2.9 nM.
Regarding `CCOP(=O)(O)[C@@H]1C[C@@H]([C@@H](NC(C)=O)C(CC)CC)[C@H](NC(=N)N)C1`, inhibition was half-maximal at 1 nM (IC50).
Then `CCCCCCOP(=O)(O)[C@@H]1C[C@@H]([C@@H](NC(C)=O)C(CC)CC)[C@H](NC(=N)N)C1`, with 1.6 nM; and `CCCCCCOP(=O)(O)C1=C[C@@H]([C@@H](NC(C)=O)C(CC)CC)[C@H](NC(=N)N)C1`, with 1.5 nM; and `CCOP(=O)(O)[C@H]1C[C@@H](NC(=N)N)[C@H]([C@@H](NC(C)=O)C(CC)CC)[C@@H]1O`, with 0.9 nM.
The compound `CCCCCCOP(=O)(O)[C@H]1C[C@@H](NC(=N)N)[C@H]([C@@H](NC(C)=O)C(CC)CC)[C@@H]1O` yielded an IC50 of 0.5 nM.
